Consider one compound from US20140330152A1, “PROVIDING EVIDENCE WHETHER AN INT[…] IS CORRECTLY POSITIONED” (priority 2011, published 2014).

For `O=C([O-])O.[Na+]` [bicarbonate (as NaHCO3), sodium bicarbonate], for the setting “administered extravascularly”, the “amount of exhaled carbon dioxide on extravascular administration” value is given as “does not substantially increase”. Further, the “clearance: amount of exhaled carbon dioxide returns to normal after administration is stopped” value (after intravenous administration is stopped) was “within the third exhalation”.
